{
  "source": "patent US20070191324A1",
  "about": "“Methods for treatment or prophylaxis of aldosterone-mediated pathogenic effects in a subject using an epoxy-steroidal aldosterone antagonist” (priority 1999, published 2007)",
  "key": {"[1]": {"tested_on": "captopril-treated saline-drinking SHRSP", "assay": "Angiotensin II-induced renal damage in captopril-treated saline-drinking SHRSP, Protocol 2 (Example A-8)", "format": "in vivo, rat (SHRSP/A3N)", "description": "Animals. Studies were conducted in accordance with institutional guidelines using male SHRSP/A3N (generations F-75 to F-78), n=37, from our local colony. These animals were bred from NIH stock, derived from the SHRSP/A3N substrain described originally by Okamoto and coworkers (Okamoto K et al. Circ. Res. 34 and 35 (suppl I):I-143-I-153.). All animals were housed in a room maintained on a 12:12-h light:dark-cycle and an ambient temperature of 22±1° C. in the Animal Care Facility at New York Medical College. Rats were weaned at 4 weeks of age and allowed free access to Purina Lab Chow 5001 (Ralston Purina, St. Louis, Mo.) and tap water until the initiation of experimental protocols.\nSHRSP were placed on Stroke-Prone Rodent Diet (#39-288, Zeigler Bros Inc., Gardners, Pa.) and 1% NaCl drinking solution ad libitum starting at 8.3 weeks of age. […] Animals were handled and weighed daily. Urine samples were collected for the assessment of proteinuria. Systolic blood pressure and heart rate were measured each week. After 2 weeks of treatment, animals were decapitated, trunk blood was collected into chilled EDTA tubes, and the kidneys were removed, blotted dry, and immediately weighed. Coronal sections of kidney were fixed and later processed for light microscopic evaluation.\nAssays and Analyses. Systolic blood pressure and heart rate of awake animals were measured by tail-cuff plethysmography using a Natsume KN-210 manometer and tachometer (Peninsula Laboratories Inc., Belmont, Calif.). Rats were warmed at 37° C. for 10 min and allowed to rest quietly in a Lucite chamber before measurement of blood pressure. Measurements of urine volume were made gravimetrically. Urinary protein concentration was determined by the sulfosalicylic acid turbidity method. Plasma aldosterone was measured by radioimmunoassay using ^125I-aldosterone as a tracer (Coat-a Count Aldosterone, Diagnostic Products Co., Los Angeles, Calif.).\nHistology. Kidneys were preserved in 10% phosphate-buffered formalin. Coronal sections (2-3 μm) were stained with hematoxylin and eosin and examined by light microscopy in a blinded fashion as previously described (Stier C T et al. J Pharmacol Exp Ther (1992) 260:1410-1415). Glomerular damage was categorized as ischemic or thrombotic. Ischemic lesions were defined as retraction of glomerular capillary tufts with or without appreciable mesangiolysis. Glomerular thrombotic lesions were defined as any one of a combination of the following: segmental to global fibrinoid necrosis, focal thrombosis of glomerular capillaries, swelling and proliferation of intracapillary (endothelial and mesangial) and/or extracapillary cells (crescents), and expansion of reticulated mesangial matrix with or without significant hypercellularity. […] Vascular thrombotic lesions were defined as any one or a combination of the following: mural fibrinoid necrosis, extravasation and fragmentation of red blood cells, and luminal and/or mural thrombosis. Proliferative arteriopathy was characterized by proliferation of markedly swollen myointimal cells with swollen round to ovoid vesicular nuclei surrounded by mucinous extracellular matrix (“onion skinning”) often resulting in nodular thickening. Vascular damage was expressed as the number of arteries and arterioles with lesions per 100 glomeruli. The presence of casts and tubular (ischemic) retraction and simplification was assessed semiquantitatively.\nStatistical Analysis. Significant effects with respect to treatment and time were determined by two-way analysis of variance. Data with only one grouping variable were analyzed statistically by Student's unpaired t tests. When more than two groups were compared, one-way analysis of variance was performed followed by the post-hoc Newman-Keul's multiple comparison test. Data were analyzed using version 2.01 of the GraphPad Prism statistical software package (GraphPad Software Inc., San Diego, Calif.). P<0.05 was considered statistically significant."}, "[2]": {"tested_on": "diabetic type 2 patients with hypertension and microalbuminuria", "assay": "Eplerenone, enalapril and combination in diabetic hypertensives with microalbuminuria, 24 weeks (Examples A-18, D-7)", "format": "in vivo, human"}, "[3]": {"tested_on": "older patients with systolic hypertension and/or widened pulse pressure", "assay": "Eplerenone versus amlodipine in systolic hypertension in older people, 24 weeks (Examples A-19, D-8)", "format": "in vivo, human", "from_the_text": "At Week 10 or thereafter, if SBP is =170 mmHg on two consecutive visits, one to three days apart, and the patient is on the maximum dose of study drug, he/she must be withdrawn. Patients will receive double-blind study medication for a total of 24 weeks. Table A-19A illustrates the above-described dosing scheme.\nHeart rate, BP, serum potassium levels, concomitant medications and adverse events will be assessed at each visit. […] Special studies: collagen markers [aminoterminal propeptide of type III procollagen (PIIINP), 7S domain of type IV collagen (7SIVC), and type I collagen telopeptide (ICTP)], plasma […] (PAI-1), tissue plasminogen activator (t-PA), microalbuminuria, and at selected sites, Ambulatory Blood Pressure Monitoring (ABPM) and arterial compliance will be done at Weeks 0, 14, and 24 or at Final Visit. Quality of Life Questionnaires will be done at visit 2A (beginning of single blind) and Weeks 0, 14, and 24 or at Final Visit. DNA genotyping will be performed at baseline.\nIn older patients, elevated systolic BP and wide pulse pressure predict cardiovascular risk better than diastolic BP. Reduced vascular compliance and intraglomerular hypertension typically accompany isolated systolic hypertension in older people.\nChanges in arterial compliance, measured by pulse-wave velocity, microalbuminuria, and adverse effects (AEs) were assessed at baseline and after 24 weeks of therapy."}, "[4]": {"tested_on": "saline-hydrated conscious dogs treated with aldosterone", "assay": "Antimineralocorticoid action in saline-hydrated conscious dogs treated with aldosterone (Example A-2)", "format": "in vivo", "settings": "aldosterone i.v. infusion; antagonist 10 mg/kg orally"}, "[5]": {"settings": "captopril 50 mg/kg/d, angiotensin II 25 ng/min, eplerenone 100 mg/kg/d, 2 weeks"}, "[6]": {"settings": "after 24 weeks, titration-to-effect"}},
  "data": [
    {"smiles": "COC(=O)[C@@H]1CC2=CC(=O)CC[C@]2(C)[C@@]23O[C@@H]2C[C@@]2(C)[C@@H](CC[C@@]24CCC(=O)O4)[C@H]13", "note": "[Eplerenone, Pregn-4-ene-7,21-dicarboxylic acid, 9,11-epoxy-17-hydroxy-3-oxo-, γ-lactone, methyl ester, (7α, 11α, 17β)-]", "values": [
      {"measurement": "Glomerular damage, Thrombotic", "setting": "[1]; [5]", "result": "1.0 ± 0.3", "unit": "lesions/100 glomeruli"},
      {"measurement": "plasma aldosterone concentration", "setting": "[1]; [5]", "result": "231 ± 37", "unit": "pg/mL"},
      {"measurement": "renal damage", "setting": "[1]; captopril + angiotensin II 25 ng/min, with eplerenone 100 mg/kg/d or vehicle", "result": "3±1", "unit": "%"},
      {"measurement": "patients withdrawn for hyperkalemia", "setting": "[2]; 24 weeks", "result": 6, "unit": "patients"},
      {"measurement": "reduction in microalbuminuria (UACR)", "setting": "[2]; 24 weeks", "result": "greater reduction in microalbuminuria than enalapril"},
      {"measurement": "subjects with elevated K+ (≧6.0 mEq/L)", "setting": "[2]; 24 weeks", "result": 8, "unit": "subjects"},
      {"measurement": "patients requiring addition of hydrochlorothiazide (HCTZ)", "setting": "[2]; EPL 200 mg QD, ENAL 40 mg QD, EPL 200 mg/ENAL 10 mg, 24 weeks", "result": "36/84"},
      {"measurement": "Adjusted mean change ΔDBP (Week 8-baseline)", "setting": "[2]; Week 8", "result": "−10.2"},
      {"measurement": "Adjusted mean change ΔSBP (Week 8-baseline)", "setting": "[2]; Week 8", "result": "−13.5"},
      {"measurement": "Adjusted mean change ΔDBP (Week 24-baseline)", "setting": "[2]; Week 24", "result": "−13.2"},
      {"measurement": "Adjusted mean change ΔSBP (Week 24-baseline)", "setting": "[2]; Week 24", "result": "−19.5"},
      {"measurement": "tolerability", "setting": "[2]; in vivo", "result": "well tolerated"},
      {"measurement": "Edema rates (%)", "setting": "[3]; 24-week study", "result": 3.7, "unit": "%"},
      {"measurement": "peripheral edema frequency", "setting": "[3]; 24 weeks", "result": 3.7, "unit": "%"},
      {"measurement": "reduction in pulse pressure", "setting": "[3]; 24 weeks", "result": "−15.9", "unit": "mmHg"},
      {"measurement": "symptoms with significant and clinically meaningful worsening in distress from Baseline (QoL)", "setting": "[3]; 24 weeks", "result": "no worsening in distress"},
      {"measurement": "reduction in SBP", "setting": "[3]; 24 weeks, EPL 50-200 mg QD, AML 2.5-10 mg QD", "result": "−20.5", "unit": "mmHg"},
      {"measurement": "Pulse Pressure (change)", "setting": "[3]; [6]", "result": "−15.9 ± 0.96", "unit": "mmHg"},
      {"measurement": "Systolic BP (change)", "setting": "[3]; [6]", "result": "−20.5 ± 1.14", "unit": "mmHg"},
      {"measurement": "safety and tolerability", "setting": "[3]; in vivo", "result": "safe and well tolerated"},
      {"measurement": "Δ microalbuminuria (%)", "setting": "[3]; only for patients with baseline microalbuminuria (>30 mg/g), 24 weeks", "result": "−52.3", "unit": "%"},
      {"measurement": "reduction in UACR", "setting": "[3]; patients with baseline microalbuminuria (>30 mg/g)", "result": "−27.1", "unit": "%"},
      {"measurement": "Na/K Ratio", "setting": "[4]", "result": 2.1},
      {"measurement": "Urinary Excretion Potassium", "setting": "[4]", "result": "11.9 ± 1", "unit": "mmol/2 h"},
      {"measurement": "Urinary Excretion Sodium", "setting": "[4]", "result": "24.4 ± 3", "unit": "mmol/2 h"}
    ]}
  ]
}
